Experimental data as given in paper PMC5859730, “Dual targeting of the cancer antioxidant network with 1,4-naphthoquinone fused Gold(I) N-heterocyclic carbene complexes” (Chemical Science, 2017).
Like-named read-outs stand apart in the source and are kept apart here.

Columns and labels:
[1] = test system: thioredoxin reductase (TrxR); conditions: A549, 0.1–0.6 μM, 6 h exposure, lipoate reduction over 180 min
Method: Briefly, plateau phase A549 cells were exposed to variable doses of complexes 1, 3, 4[H][Cl], a 2 : 1 molar ratio of 4[H][Cl] and 5 (cocktail), auranofin, and doxorubicin for 6 h. Post treatment, the live cells were monitored colorimetrically over 180 min for their ability to reduce lipoate (Fig. 8a).

A549 cancer cells = assay: Confocal microscopy of ROS localisation; assay type: cell-based, human; conditions: A549, 1.25 μM, 4 h
Method: To further elucidate the subcellular loci of ROS accentuation, confocal microscopy was employed to fluorescently image A549 cancer cells treated with vehicle (DMSO) and 1.25 μM complex 1 (Fig. 7d). All cells were selectively stained for visualization of ROS accentuation (green, CM-H2DCFDA), mitochondria (red, Mitotracker Red), and nuclei (blue, Hoechst).
Serum Protein Binding Studies.
aliquots were stored at -80°C.
in an Edvotek microcentrifuge. […] Samples
Detection of ROS by Flow Cytometry.
cells were treated with vehicle only.
g) at 5 °C. […] The pellet was
Control samples of unstained cells,
overnight. […] Post incubation, the media was
After incubation, the dye-
Cells were then imaged fluorescently
Lipoate Inhibition Assays.
well culture plates. […] The next day, appropriate
were added to each well. […] Afterwards, the liquid was then

A549 lung cancer cells = assay: Cell proliferation (MTT assay) in A549 lung cancer cells; assay type: cell-based, human
Method: To gauge the ability of each complex to inhibit cancer cell growth, A549 lung cancer cells were treated with 1–3, 4[H][Cl], doxorubicin, and auranofin in a dose responsive manner. Cellular vitality (i.e., mitochondrial reductase activity) was then quantified colorimetrically post treatment using 3-(4,5-dimethylthiazol-2-yl)-2,5-diphenyltetrazolium bromide (MTT assay) (Table 2, Fig. 5).
Biological preparations and assays
Experimental compound preparation. Stock solutions of complexes 1–3, 4[H][Cl], auranofin (Tocris Bioscience 4600), and doxorubicin (Tocris Bioscience 2252) were dissolved in DMSO (2.5–10 mM, depending on the compound and its solubility), aliquoted, and stored at -80 °C prior to use.
Biological Materials and Cell Lines. Cell lines were obtained from the ATCC (A549 and PC-3) and Prof.
Zahid Siddik at M.D. Anderson Cancer Center (A2780 and A2780CP). Cell culture plastic ware (i.e. T-75 flasks, treated 6-well plates, treated 96-well plates, and cell scrapers) were obtained from Fisher Scientific. Cell were cultured in RPMI 1640 culture medium (+2mM glutamine, +25mM HEPES, Corning 10041cv) supplemented with 10% heat-inactivated fetal bovine serum (RMBIO FBS-BBT) and 1X penicillin-streptomycin (Sigma p4333). Unless otherwise noted, incubators were set to 37°C and 5% CO2.
Trypsin (HyClone SH30236.01) and 1X Phosphate Buffered Saline (HyClone SH30258.02, diluted in autoclaved deionized water) were utilized for general cell line maintenance and harvesting. Trace Metal […]
Cell Proliferation Studies. Cells were harvested and seeded into 96-well culture plates (Costar 07-200-90) in 100µL of culture media. They were allowed to incubate overnight at 37 °C in the presence of 5% CO2. […]
and PC-3 at 2000 cells/well. […]
were made. To each well of a 96 well plate was added 100 µL of the appropriate solution. After a total of three days, a […] aliquot of 3 mg/mL tetrazolium dye, 3-(4,5-dimethylthiazol-2-yl)-2,5-diphenyltetrazolium bromide (Alfa Aesar L11939) was added to each well, followed by a 4 hr incubation period at 37 °C. The medium was then removed, the resulting formazan was dissolved in […] DMSO and the respective absorbances were measured at 560–650 nm using a microplate reader (Molecular Devices, Sunnyvale, CA). Absorbance values were corrected for background and then normalized to wells containing untreated cells to allow for plate-to-plate comparisons. The data are shown as mean inhibition of proliferation or growth as a percentage of control cells and are from 2–3 replicate experiments. Resulting dose response curves were subjected to linear regression analysis (Origin by OriginLab, Inc.) for determination of IC50 values.

`Cc1cc(C)c(-n2c3c(n(-c4c(C)cc(C)cc4C)[c]2=[Au-]=[c]2n(-c4c(C)cc(C)cc4C)c4c(n2-c2c(C)cc(C)cc2C)C(=O)c2ccccc2C4=O)C(=O)c2ccccc2C3=O)c(C)c1.[Cl][Ag-][Cl]` [Complex 1, [bis(1,3-dimesityl-4,5-naphthoquino-imidazol-2-ylidene)-gold(I)] [silver(I)dichloride]] was tested, and the “Inhibition of TrxR at low concentrations” value [1] was “inhibition of TrxR was apparent”, the “Subcellular locus of ROS accentuation” value (A549 cancer cells) was “ROS accentuation is arising from mitochondria” and the “Fold difference relative to 1” value (A549 lung cancer cells; A549, ratio of IC50 to that of 1 (Table 2)) was 1. For the same compound, the IC50 (A549 lung cancer cells; A549 lung cancer cells, MTT, 72 h, read-out: IC50) was 73 nM and the IC50 (A549 lung cancer cells; Table 3, error = standard error from the mean, read-out: IC50 A549 lung) was 73 ± 16 nM.
